Results as given in ChEMBL document CHEMBL4321817, “A Chemical Probe for Tudor Domain Protein Spindlin1 to Investigate Chromatin Function” (J Med Chem, 2019).

Assays:
[1] = Stability in human liver microsomes assessed as half life; type: ADME, Microsome
[2] = Stability in moue liver microsomes assessed as intrinsic clearance; type: ADME, Microsome; settings: mouse, read-out: CLH
[3] = Apparent permeability from apical side to basolateral side in human Caco2 cells; type: ADME, cell-based; settings: Caco-2
[4] = system: U2OS; test: Cytotoxicity against human U2OS cells assessed as reduction in cell viability at >3 uM incubated for 2 days by propidium iodide staining based assay; settings: 48 h
[5] = Solubility of compound at >100 uM; type: physicochemical
[6] = Apparent permeability from basolateral side to apical side in human Caco2 cells; type: ADME, cell-based; settings: Caco-2
[7] = Stability in human liver microsomes assessed as intrinsic clearance; type: ADME, Microsome; settings: read-out: CLH
[8] = Stability in mouse liver microsomes assessed as half life; type: ADME, Microsome
[9] = target: T1, Histone-lysine N-methyltransferase EHMT2 (Homo sapiens, UniProt Q96KQ7); test: Inhibition of G9a (unknown origin) by scintillation proximity Assay
T1 sequence (Q96KQ7 whole entry): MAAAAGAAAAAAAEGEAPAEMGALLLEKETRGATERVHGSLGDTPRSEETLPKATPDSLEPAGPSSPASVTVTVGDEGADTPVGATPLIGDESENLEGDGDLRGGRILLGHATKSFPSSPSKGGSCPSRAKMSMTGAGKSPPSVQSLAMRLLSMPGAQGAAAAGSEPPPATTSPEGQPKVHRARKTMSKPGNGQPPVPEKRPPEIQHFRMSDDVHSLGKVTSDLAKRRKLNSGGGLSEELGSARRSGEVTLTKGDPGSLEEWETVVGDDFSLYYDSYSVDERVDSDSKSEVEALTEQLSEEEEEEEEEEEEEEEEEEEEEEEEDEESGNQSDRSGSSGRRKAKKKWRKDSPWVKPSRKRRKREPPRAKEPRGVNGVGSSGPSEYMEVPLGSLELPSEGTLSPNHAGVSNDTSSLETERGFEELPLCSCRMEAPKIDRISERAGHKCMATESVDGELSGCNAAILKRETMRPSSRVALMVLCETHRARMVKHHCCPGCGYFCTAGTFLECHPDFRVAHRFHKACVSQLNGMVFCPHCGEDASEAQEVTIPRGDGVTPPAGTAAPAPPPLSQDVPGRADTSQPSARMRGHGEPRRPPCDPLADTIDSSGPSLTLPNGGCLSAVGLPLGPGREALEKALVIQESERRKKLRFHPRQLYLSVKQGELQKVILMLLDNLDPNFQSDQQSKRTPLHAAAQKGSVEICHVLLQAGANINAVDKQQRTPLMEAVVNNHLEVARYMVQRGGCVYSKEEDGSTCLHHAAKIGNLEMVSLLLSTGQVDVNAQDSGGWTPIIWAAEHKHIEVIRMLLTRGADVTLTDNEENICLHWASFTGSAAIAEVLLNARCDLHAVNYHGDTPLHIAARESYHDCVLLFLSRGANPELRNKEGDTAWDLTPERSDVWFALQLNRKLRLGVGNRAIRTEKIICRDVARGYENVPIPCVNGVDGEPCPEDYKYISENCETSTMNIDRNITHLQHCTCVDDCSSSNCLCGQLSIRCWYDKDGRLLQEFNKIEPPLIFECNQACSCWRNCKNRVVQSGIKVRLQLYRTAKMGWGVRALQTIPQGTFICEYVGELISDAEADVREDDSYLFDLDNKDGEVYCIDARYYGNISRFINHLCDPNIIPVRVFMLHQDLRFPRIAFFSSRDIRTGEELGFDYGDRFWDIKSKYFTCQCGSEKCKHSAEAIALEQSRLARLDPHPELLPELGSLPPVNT

[10] = target: Spindlin-1 (Homo sapiens, UniProt Q9Y657); test: Displacement of trimethylated biotinylated histone H3 peptide from recombinant human His-tagged SPIN1 (26 to 262 residues) expressed in Escherichia coli BL21 (DE3) incubated for 30 mins followed by peptide addition and measured after 1 hr by Alphascreen method
Chain of Spindlin-1 (Q9Y657 whole entry, the tested form may be a part): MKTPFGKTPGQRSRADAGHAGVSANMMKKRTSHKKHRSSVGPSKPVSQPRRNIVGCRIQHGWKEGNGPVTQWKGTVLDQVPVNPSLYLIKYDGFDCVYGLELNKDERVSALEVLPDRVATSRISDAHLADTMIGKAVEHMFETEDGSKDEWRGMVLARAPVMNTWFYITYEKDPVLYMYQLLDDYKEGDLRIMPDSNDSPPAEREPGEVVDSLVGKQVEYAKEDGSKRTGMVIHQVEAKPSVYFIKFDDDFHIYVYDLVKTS

Row | IC50 [10] [nM] | IC50 ([9]; read-out: IC50) [nM] | Compound | Activity [4] | other results
1 |  | 6 | COc1cc2c(cc1OCCCN1CCCC1)N=C(N)C21CCCC1 |  | 
2 | 6650 |  | COc1cc2c(cc1OCCCN1Cc3cccc(OC)c3C1)N=C(N)C21CCCC1 |  | 
3 | 6220 |  | NC1=Nc2cc(OCCCCN3Cc4ccccc4C3)c(OCC3CC3)cc2C12CCCC2 | Toxic | IC50 [9]: Not Active
4 | 600 |  | COc1ccc2c(c1)CN(CCCOc1cc3c(cc1OC)C1(CCCC1)C(N)=N3)C2 |  | 
5 | 660 | 10000 | COc1cc2c(cc1OCCCN1Cc3ccccc3C1)N=C(N)C21CCCC1 |  | 
6 | 340 |  | COc1ccc2c(c1)CN(CCCOc1cc3c(cc1OCC1CC1)C1(CCCC1)C(N)=N3)C2 |  | 

More lines, now with the values behind:

Row | Compound | IC50 [10] [nM] | IC50 ([9]; read-out: IC50) [nM] | Activity [4] | other results
7 | CC1(C)C(N)=Nc2cc(OCCCN3Cc4ccc(OCCc5cn(CC(=O)N6CCC(CCN7CCCC7)CC6)nn5)cc4C3)c(OCC3CC3)cc21 |  |  | Non-Toxic | half-life [1]: 68.4 min; microsomal CLint [2]: 37.4 µL/min/mg; Papp A→B [3]: 6.59 ×10⁻⁶ cm/s; solubility [5]: Soluble; Papp B→A [6]: 6.07 ×10⁻⁶ cm/s; microsomal CLint [7]: 20.3 µL/min/mg; half-life [8]: 37.1 min
8 | CC1(C)C(N)=Nc2cc(OCCCCN3Cc4ccc(OCc5cn(CC(=O)N6CCC(CCN7CCCC7)CC6)nn5)cc4C3)c(OCC3CC3)cc21 |  |  | Non-Toxic | 
9 | CC1(C)C(N)=Nc2cc(OCCCCN3Cc4ccccc4C3)c(OCC3CC3)cc21 | 6920 |  | Toxic | IC50 [9]: Not Active
10 | CCOc1cc2c(cc1OCCCN1CCCC1)N=C(N)C21CCCC1 |  | 120 |  | 
11 | NC1=Nc2cc(OCCCN3CCCC3)c(OCC3CC3)cc2C12CCCC2 | 1120 | 3100 |  | 
12 | NC1=Nc2cc(OCCCN3Cc4ccccc4C3)c(OCC3CC3)cc2C12CCCC2 |  |  | Toxic | IC50 [9]: Not Active
13 | CC1(C)C(N)=Nc2cc(OCCCN3Cc4ccccc4C3)c(OCC3CC3)cc21 |  |  | Toxic | IC50 [9]: Not Active
14 | CC(C)Oc1cc2c(cc1OCCCN1CCCC1)N=C(N)C21CCCC1 | 8910 | 900 |  | 
